US5225528A, “Cyclic hexapeptide oxytocin antagonists” (priority 1990, dated 1993)
Like-named read-outs stand apart in the source and are kept apart here. Numbered stars: 1 amine (or outer) side, 2 acyl side, 3 side chain; on linkers, the order of the positions; unused ones are H or OH. Square brackets hold non-standard residues; d marks the D form. Peptide text beside a SMILES is read from it. * marks the point of attachment. X2 = O=C(OCc1ccccc1)N1CCN([*:1])[C@H](C(=O)[*:2])C1; X4 = O=C([C@@H](Cc1cn(COCc2ccccc2)cn1)N[*:1])[*:2]; dPiz(1,6-dehydro) = O=C(O)[C@H]1CCC=NN1; d2Nal = N[C@H](Cc1ccc2ccccc2c1)C(=O)O; Ethyl(2-morpholino) = C1CN(CC*)CCO1; dNMeY = CN[C@H](Cc1ccc(O)cc1)C(=O)O; X3 = O=C([C@@H]1C=CCCN1[*:1])[*:2]; X1 = O=C([C@H]1C=CCCN1[*:1])[*:2]; Pip(4-aza) = O=C(O)[C@@H]1CNCCN1; dNMeF = CN[C@H](Cc1ccccc1)C(=O)O; dPip(4-aza) = O=C(O)[C@H]1CNCCN1; Pip = O=C(O)[C@@H]1CCCCN1; dPip = O=C(O)[C@H]1CCCCN1; Orn = NCCC[C@H](N)C(=O)O; dNMeA = CN[C@H](C)C(=O)O; Cbz = O=C(OCc1ccccc1)*; Boc = CC(C)(C)OC(=O)*; Dha = C=C(N)C(=O)O

Experiments:
[1] = molecular target: T1, AVP-V2 sites (Rattus norvegicus, UniProt Q00788); assay: [^3 H]AVP binding to crude membrane preparation of male rat kidney medulla (AVP-V2 sites)
T1 construct: male rat liver (AVP-V1 sites) or kidney medulla (AVP-V2 sites); from tissue; host or cells: male rat kidney medulla, crude membranes
T1 sequence (Q00788 whole entry): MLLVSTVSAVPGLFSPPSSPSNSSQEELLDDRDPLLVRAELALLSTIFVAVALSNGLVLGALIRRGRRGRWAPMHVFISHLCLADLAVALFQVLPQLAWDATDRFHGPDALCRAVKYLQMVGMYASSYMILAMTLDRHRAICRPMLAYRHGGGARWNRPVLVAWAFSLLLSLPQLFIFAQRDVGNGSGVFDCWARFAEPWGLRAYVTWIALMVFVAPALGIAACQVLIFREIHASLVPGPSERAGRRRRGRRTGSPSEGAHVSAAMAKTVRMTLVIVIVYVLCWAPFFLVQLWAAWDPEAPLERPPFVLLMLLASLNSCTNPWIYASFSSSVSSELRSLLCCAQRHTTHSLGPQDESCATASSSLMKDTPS
Procedure: (§1) Nonspecific binding (5-10% of the total binding) was determined using 10 μM unlabeled AVP, and the binding reaction was terminated by filtration as described above for the [^3 H]OT binding assay.

[2] = molecular target: T2, AVP-V1 sites (Rattus norvegicus, UniProt P30560); assay: [^3 H]AVP binding to crude membrane preparation of male rat liver (AVP-V1 sites)
T2 construct: crude membrane preparation of male rat liver (AVP-V1 sites); from tissue; host or cells: male rat liver, crude membranes
T2 sequence (P30560 whole entry): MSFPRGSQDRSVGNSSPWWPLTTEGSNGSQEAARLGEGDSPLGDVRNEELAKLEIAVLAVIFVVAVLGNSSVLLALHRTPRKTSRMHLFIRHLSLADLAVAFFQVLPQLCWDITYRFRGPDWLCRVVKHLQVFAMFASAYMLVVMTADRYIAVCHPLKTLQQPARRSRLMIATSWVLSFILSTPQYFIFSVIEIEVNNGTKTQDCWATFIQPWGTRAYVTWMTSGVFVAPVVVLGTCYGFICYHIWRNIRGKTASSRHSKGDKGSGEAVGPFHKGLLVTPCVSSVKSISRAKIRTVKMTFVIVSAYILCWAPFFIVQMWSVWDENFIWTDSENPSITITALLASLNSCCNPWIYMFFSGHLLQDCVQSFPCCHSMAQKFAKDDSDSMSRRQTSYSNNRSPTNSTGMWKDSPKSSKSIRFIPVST
Procedure: as §1

[3] = molecular target: T3, uterine OT receptors (Rattus norvegicus, UniProt P70536); assay: [^3 H]OT binding to uterine OT receptors, crude membrane preparation of uteri from DES-treated rats
T3 construct: from tissue; host or cells: uterus of DES-treated rats, crude membranes
T3 sequence (P70536 1-388): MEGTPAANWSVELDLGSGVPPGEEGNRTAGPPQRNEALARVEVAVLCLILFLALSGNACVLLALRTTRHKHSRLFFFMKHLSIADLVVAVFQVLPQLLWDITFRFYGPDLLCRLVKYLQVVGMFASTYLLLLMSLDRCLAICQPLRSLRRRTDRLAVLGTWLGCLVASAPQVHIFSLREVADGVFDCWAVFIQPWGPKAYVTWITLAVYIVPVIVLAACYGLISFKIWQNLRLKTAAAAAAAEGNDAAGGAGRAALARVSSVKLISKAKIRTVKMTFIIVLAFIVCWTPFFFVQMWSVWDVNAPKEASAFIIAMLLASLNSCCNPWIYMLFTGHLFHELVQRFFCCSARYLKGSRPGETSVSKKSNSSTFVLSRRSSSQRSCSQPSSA
Procedure: Competition studies were conducted at equilibrium (60 minutes; 22° C.) using 1 nM [^3 H]OT in the following assay buffer: 50 mM Tris-HCl, 5 mM MgCl2, and 0.1% BSA, pH 7.4.

[4] = rat kidney medulla membranes, 2 nM [^3 H]AVP, read-out: Receptor Binding Results IC50 (nM) [^3 H]-AVP-V2
[5] = read-out: Receptor Binding Results IC50 (nM) [^3 H]-AVP-V1
[6] = rat uterus membranes, 1 nM [^3 H]OT, read-out: Receptor Binding Results IC50 (nM) [^3 H]OT
[7] = read-out: Receptor Binding Results IC50 (nM) [^3 H]-AVP-V2
[8] = Receptor Binding Results IC50 (nM) [^3 H]-AVP-V1

Row | IC50 [2, 5] [nM] | Compound | IC50 [1, 4] [nM] | IC50 [3, 6] [nM] | IC50 [2, 8] [nM] | further results
1 | 7900 | CC[C@H](C)[C@@H]1NC(=O)[C@@H](Cc2ccccc2)NC(=O)[C@@H]2CCCN2C(=O)[C@@H](Cc2ccccc2)NC(=O)[C@H]2CNCCN2C(=O)[C@H]2CCCCN2C1=O [Example 78, c-[D-Phenylalanyl-L-isoleucinyl-D-pipecolyl-D-piperazin-2-yl-D-phenylalanyl-L-prolyl]] (cyclo(I[dPip][dPip(4-aza)][dF]P[dF])) | > 10000 | 300 |  | 
2 | 16000 | CC[C@H](C)[C@@H]1NC(=O)[C@@H](Cc2c[nH]c3ccccc23)NC(=O)[C@@H]2CCCN2C(=O)[C@@H](Cc2cn(COCc3ccccc3)cn2)NC(=O)[C@@H]2CNCCN2C(=O)[C@H]2CCCCN2C1=O [Example 177, c-[D-Tryptophanyl-L-isoleucinyl-D-pipecolyl-L-piperazin-2-yl-D-histidinyl(BOM)-L-prolyl]] (cyclo([dW]I[dPip][Pip(4-aza)][X4]P)) |  | 76 |  | IC50 [1, 7]: 12000 nM
3 |  | CC[C@H](C)[C@@H]1NC(=O)[C@@H](Cc2ccccc2)NC(=O)[C@@H]2CCCN2C(=O)[C@@H](Cc2ccccc2)NC(=O)[C@@H]2CNCCN2C(=O)[C@H]2CCCN2C1=O [Example 164, c-[D-Phenylalanyl-L-isoleucinyl-D-prolyl-L-piperazin-2-yl-D-phenylalanyl-L-prolyl]] (cyclo(I[dP][Pip(4-aza)][dF]P[dF])) | > 10000 | 1300 | 10000 | 
4 |  | CC[C@H](C)[C@@H]1NC(=O)[C@@H](Cc2ccc3ccccc3c2)NC(=O)[C@@H]2CCCN2C(=O)[C@@H](Cc2c[nH]cn2)NC(=O)[C@@H]2CN(C(=O)OCc3ccccc3)CCN2C(=O)[C@H]2CCCCN2C1=O [Example 158, c-[D-2-Naphthylalanyl-L-isoleucyl-D-pipecolyl-L-piperazin-2-yl-(4-carbobenzyloxy)-D-histidyl-L-prolyl]] (cyclo(I[dPip][X2][dH]P[d2Nal])) |  |  | > 1000 | inhibition at 1 µM ([1]; 0.5 h, @ 1,000 (nM), read-out: [^3 H]-AVP-V2: percent inhibition of radioligand at the given concentration): 68%; inhibition at 0.01 µM ([3]; 1 h, @ 10 (nM), read-out: [^3 H]OT: percent inhibition of radioligand at the given concentration): 60%
5 |  | CC[C@H](C)[C@@H]1NC(=O)[C@@H](Cc2ccccc2)NC(=O)[C@@H]2CCCN2C(=O)[C@@H](Cc2ccccc2)N(C)C(=O)[C@@H]2C=CCCN2C(=O)[C@H]2CCCCN2C1=O [Example 23, Cyclo[D-phenylanyl-L-isoleucyl-D-pipecolyl-L-(3,4-dehydro)-pipecolyl-D-(N^α methyl)phenylalanyl-L-prolyl]] (cyclo(I[dPip][X3][dNMeF]P[dF])) | > 10000 | 625 | > 10000 | 
6 |  | CC[C@H](C)[C@@H]1NC(=O)[C@@H](Cc2ccccc2)NC(=O)[C@@H]2CCCN2C(=O)[C@@H](Cc2ccccc2)N(C)C(=O)[C@H](CO)NC(=O)[C@H]2CCCN2C1=O [Example 114, c-[D-Phenylalanyl-L-isoleucyl-D-prolyl-L-seryl-N-methyl-D-phenylalanyl-L-prolyl]] (cyclo(I[dP]S[dNMeF]P[dF])) | > 10000 | 675 | > 10000 | 
7 | 1500 | CC[C@H](C)[C@@H]1NC(=O)[C@@H](Cc2ccccc2)NC(=O)[C@@H]2CCCN2C(=O)[C@@H](Cc2ccccc2)N(C)C(=O)[C@H](CCCCNC(=O)OC(C)(C)C)NC(=O)[C@H]2CCC=NN2C1=O [Example 173, C-[D-Phenylalanyl-L-isoleucyl-D-Δ-piperazyl-L-(N^ε -t-Butyloxycarbonyl)-Lysl-M-Me-D-phenylalanyl-L-prolyl]] (cyclo(I[dPiz(1,6-dehydro)]K(Boc)[dNMeF]P[dF])) |  | 71 |  | IC50 [1, 7]: 2800 nM
8 |  | CC[C@H](C)[C@@H]1NC(=O)[C@@H](Cc2c[nH]c3ccccc23)NC(=O)[C@@H]2CCCN2C(=O)[C@@H](Cc2ccccc2)N(C)C(=O)[C@H](CCCCNC(=O)OCc2ccccc2)NC(=O)[C@H]2CCCCN2C1=O [Example 35, Cyclo[D-tryptophanyl-L-isoleucyl-D-pipecolyl-L-(carbobenzyloxy)lysyl-D-(N^α Methyl)phenylalanyl-L-prolyl]] (cyclo(I[dPip]K(Cbz)[dNMeF]P[dW])) | 10000 | > 100 | 10000 | 
9 | 2700 | CC[C@H](C)[C@@H]1NC(=O)[C@@H](Cc2ccccc2)NC(=O)[C@@H]2CCCN2C(=O)[C@@H](Cc2ccccc2)N(C)C(=O)[C@H](CCCNC(=O)OC(C)(C)C)NC(=O)[C@H]2CCC=NN2C1=O [Example 124, c-[D-Phenylalanyl-L-isoleucyl-D-Δ-piperazyl(N^δ -Boc)-L-orinthyl-N-methyl-D-δ-phenyl-alaninyl-L-prolyl]] (cyclo(I[dPiz(1,6-dehydro)][Orn](Boc)[dNMeF]P[dF])) |  | 17.5 |  | IC50 [1, 7]: 3600 nM
10 |  | CC[C@H](C)[C@@H]1NC(=O)[C@@H](Cc2ccccc2)NC(=O)[C@@H]2CCCN2C(=O)[C@@H](Cc2ccccc2)N(C)C(=O)[C@@H]2CCCN2C(=O)[C@H]2CCCCN2C1=O [Example 7, Cyclo[D-phenylalanyl-L-isolelucyl-D-pipecolyl-L-propyl-D-(N^α Methyl)phenyl-L-prolyl]] (cyclo(I[dPip]P[dNMeF]P[dF])) | > 10000 |  | > 10000 | IC50 ([3]; Receptor Binding Results IC50 (nM) [^3 H]OT): 350 nM
11 | 12000 | CC[C@H](C)[C@@H]1NC(=O)[C@@H](Cc2c[nH]c3ccccc23)NC(=O)[C@@H]2CCCN2C(=O)[C@@H](Cc2ccccc2)N(C)C(=O)[C@@H]2CCCCN2C(=O)[C@H]2CCCCN2C1=O [Example 30, Cyclo[D-tryptophanyl-L-isoleucyl-D-pipecolyl-L-pipecolyl-D(N^α methyl)phenylalanyl-L-prolyl]] (cyclo(I[dPip][Pip][dNMeF]P[dW])) |  | 20 |  | IC50 [1, 7]: 747 nM
12 |  | CC[C@H](C)[C@@H]1NC(=O)[C@@H](Cc2ccccc2)NC(=O)[C@@H]2CCCN2C(=O)[C@@H](Cc2ccc(OCCN3CCOCC3)cc2)N(C)C(=O)[C@@H]2CCCCN2C(=O)[C@H]2CCCCN2C1=O [Example 50] (cyclo(I[dPip][Pip][dNMeY](Ethyl(2-morpholino))P[dF])) |  | 310 | > 10000 | IC50 ([1]; Receptor Binding Results IC50 (nM) [^3 H]-AVP-V2): > 1000 nM
13 |  | C=C1NC(=O)[C@H]2CCCN2C(=O)[C@H]([C@@H](C)CC)NC(=O)[C@@H](Cc2ccccc2)NC(=O)[C@@H]2CCCN2C(=O)[C@@H](Cc2ccccc2)N(C)C1=O [Example 117, c-[D-Phenylalanyl-L-isoleucyl-D-prolyl-dehydroalanyl-N-methyl-D-phenylalanyl-L-prolyl]] (cyclo([Dha][dNMeF]P[dF]I[dP])) | > 10000 | > 10000 | > 10000 | 
14 |  | CC[C@H](C)[C@@H]1NC(=O)[C@@H](C)N(C)C(=O)[C@@H]2CCCN2C(=O)[C@@H](Cc2ccccc2)N(C)C(=O)[C@@H]2CCCCN2C(=O)[C@H]2CCCCN2C1=O [Example 167, c-[N-Me-D-Alanyl-L-isoleucyl-D-pipecolyl-L-pipecolyl-N-Me-D-phenylalanyl-L-prolyl]] (cyclo(I[dPip][Pip][dNMeF]P[dNMeA])) | > 10000 |  | > 10000 | inhibition at 1 µM ([3]; 1 h, @ 1,000 (nM), read-out: [^3 H]OT: percent inhibition of radioligand at the given concentration): 5%
15 |  | CC[C@H](C)[C@@H]1NC(=O)[C@@H](Cc2ccccc2)NC(=O)[C@@H]2CCCN2C(=O)[C@@H](Cc2ccccc2)N(C)C(=O)[C@H]2C=CCCN2C(=O)[C@H]2CCCCN2C1=O [Example 22, Cyclo[D-Phenylalanyl-L-isoleucyl-D-pipecolyl-D-(3,4-Dehydro)-pipecolyl-D-(N^α methyl)phenylalanyl-L-Prolyl]] (cyclo(I[dPip][X1][dNMeF]P[dF])) | > 10000 | 2400 | > 10000 | 
